The record followed here is US8465778B2, “Method of making tyrosine kinase microspheres” (Allergan, Inc., priority 2004, dated 2013).

The nature of data set [1]: in vivo. The conditions noted are these: female, albino, rabbit.
Protocol: (§1) Vitreous humor samples (n=4 eyes per timepoint) were collected at 0.5, 1, 2, 4, 8, and 12 hr postdose. The TKI concentration in the vitreous humor was determined using a liquid chromatography tandem mass spectrometry method (LC-MS/MS).
Data set [2] in a line: In vitro TKI release from PLGA/PLA implants (Example 2). As to conditions: for period of in-vitro release from implants: implants in release medium, 37° C. The data set is classed as physicochemical. How it is done:
TKI release from the implants was assessed in vitro. Implants were placed into vials containing release medium and shaken at 37° C. At the appropriate time points a sample was taken from the release medium for analysis and the medium totally replaced to maintain sink conditions. Drug in the sample was assayed by HPLC and the cumulative percent release of drug from the implant noted as a function of time. The in vitro release profiles of AGN 200954, AGN 202314, AGN 201635 and AGN 202564 are depicted in FIGS. 3 through 10, respectively.

Data set [3] is described as follows: Physicochemical properties of the TKIs (solubility, log P, log D, pKa; Tables 2, 11, 13). The conditions noted are these: for logP: n-octanol/water, Table 2; for solubility: pH 7, aqueous buffer. How it is done: Tyrosine kinase inhibitors were incorporated into PLGA or PLA implants by extrusion. The TKIs were milled with the polymers at certain ratios then extruded into filaments. These filaments were subsequently cut into implants weighing approximately 1 mg. Several TKIs were formulated in the PLGA and PLA implants based on their potencies and physicochemical properties as shown in Table 2.
We developed a new (oil in water) process for making active agent microspheres (FIG. 23). This new process for making microspheres can be used with any small molecule which is slightly soluble in water and organic solvents and which is able to preferentially crystallize in organic solvents. Such small molecules include those which have a Log P greater than or equal to four. P, the partition coefficient, is defined as the ratio of the equilibrium concentration (Ci) of a dissolved substance in a two-phase system consisting of two largely immiscible solvents, for example the ratio of n-octanol (Co) to water (Cw).
Using our new process, each of the five different TKIs shown by FIG. 24 were separately incorporated into PLGA biodegradable microspheres. In FIG. 24 the five TKIs shown are identified as follows: first (uppermost) row: 206639 and 205558; second (middle) row: 206320 and 206316, and; bottom row: 206784. The properties of these five TKIs are set forth in Table 13, where “DSC” means differential scanning calorimetry and endotherms are noted in degrees Celsius (used to determine presence of TKI crystals).

Data set [4] in a line: Intravitreal pharmacokinetics of TKIs in fluid compositions after a single intravitreal injection. As to conditions: female, albino, rabbit, vitreous humor, other: intravitreal injection.
Protocol: as §1
Data set [5] in a line: Stability of AGN 201634 standard solution in DI water/acetonitrile at 4° C. It counts as physicochemical. As to conditions: DI water/acetonitrile (75%/25%) at 4° C. How it is done:
The stability of AGN 201634 standard solution in deionized water/acetonitrile (75%/25%) was examined at 4° C., and the results are summarized in the following table. The concentration of standard solution was from 0.0695 μg/mL to 8.693 μg/mL, and was analyzed on day 14, 21, and 35.
Stability of AGN 201634 standard solution of various concentrations in DI water/acetonitrile (75%/25%) at 4° C. (Table 9).

A short description of data set [6]: Stability of TKI in Formulations 3 and 4 in media of pH 6.0, 7.4 or 8.5. The data set is classed as physicochemical. The protocol:
To examine the stability of TKI in formulation, Formulations 3 and 4 were prepared to various concentration in a medium of pH 6.0, 7.4 or 8.5, respectively, and subjected to an incubation condition of either 7 days under ambient condition or 14 days at 4° C., and the results are summarized in the following table.

Data set [7] is described as follows: In vitro release of AGN 201634 from PDLG/PDL implants in different media. The data set is classed as physicochemical. The protocol:
TKI release was examined for implants made from poly (D,L-lactide-co-glycolide) (PDLG) or poly (D,L-lactide) (PDL) in different media with or without addition of detergent at 37° C. in a shaking water bath.
TKI release was examined in various medium, including saline, phosphate buffer saline of pH 7.4, 50 mM bicarbonate buffer of pH 6.0±0.1 with 0.1% cetyltrimethylammonium bromide (CTAB), and 50 mM borate buffer of pH 8.5±0.1 with 0.5% sodium dodecyl sulfate (SDS) in a shaking water bath (Precision) at 37° C. Sample was incubated in 10 mL of medium, and was totally replaced with fresh medium at each sampling time. Drug concentration was determined by HPLC using a Waters 2690 Separation Module equipped with a Waters XTerra RP8 column (3.9×150 mm, 5 μm, equilibrated at ambient) and a Waters 996 photodiode array detector (set at 238 nm) using 0.1% acetic acid in acetonitrile/water (40/60 by volume) as the mobile phase under a flow rate of 1.2 mL/min. The column was equilibrated with mobile phase for at least 30 min before initiating any sample injection.
The DDS was incubated in a vial of either 40 or 20 mL, and 10 mL sample solution was replaced by same volume of fresh medium, respectively, at each sampling time. The release profiles in saline and PBS were obviously different. Less than 5% of TKI was released in saline during the first 70 days. In contrast, less than 5% of AGN 201634 was released at the first 3 weeks when DDS was incubated in PBS, the same as in saline, but more than 80% of AGN 201634 was released after 70 days. […] It seems that release medium plans an important role in the variation of release profile instead of incubation volume. Due to this slow and diverged release profile, the release profile of Formulation 2 was not performed since its formulation was based on the same polymer with a lower drug loading.
For F3, more than 50%, 45%, and 75% TKI was released at the first 3, 7, and 2 weeks, when DDS was incubated in a medium of pH 6.0 (with 0.1% CTAB), 7.4 (PBS) and 8.5 (with 0.5% SDS), respectively. […]

The nature of data set [8]: In vivo pharmacokinetics of AGN 202314 intravitreal PLGA implants. More on the design: species or system rabbit. The protocol: Implants containing AGN 202314 were placed intravitreally or subconjunctivally in an eye. The implants released AGN 202314 in-vitro over a 14 day period (FIG. 3.). The intent of this study was to achieve an intravitreal in-vivo/in-vitro correlation with the intravitreal implants and assess the feasibility of periocular delivery.
Intravitreal Implants, PLGA (400 μg AGN 202314 dose, 1 mg total implant weight), were implanted by surgical incision into the mid vitreous of albino rabbits. At days 8, 15, 31 and 61 rabbits were sacrificed and the vitreous humor, lens, aqueous humor and plasma assayed for AGN 202314.

Data set [9] can be described thus: In vivo pharmacokinetics of AGN 202314 subconjunctival PLGA implants and PLA microspheres. The conditions noted are these: rabbit; for concentration at 8 day: Day 8. The protocol: Subconjunctival implants, PLGA (1200 μg AGN 202314 dose; three implants) and PLA microspheres (300 μg AGN 202314) were implanted subconjunctivally. At days 8, 15, 31 and 61 rabbits were sacrificed and the vitreous humor, lens, aqueous humor and plasma assayed for AGN 202314.

Where [10] appears, read: Day 31, subconjunctival PLGA implants, 3 rods, total 1.2 mg AGN 202314.
Where [11] appears, read: Day 61, subconjunctival PLGA implants, 3 rods, total 1.2 mg AGN 202314.

In brackets after ≈: the same amount, converted by molar mass. Like-named read-outs stand apart in the source and are kept apart here.

For orientation: Vd means a proportionality between amount in the body and measured concentration, not a real space. Low values mean confinement near the circulation, high ones extensive tissue distribution. For orientation: clearance means a measure of how efficiently the substance is removed, as volume per time. A lower clearance goes with a low capacity for elimination. In general, half-life refers to how long it takes for the measured level to halve. Lower therefore signals fast loss. In data set [1], `O=C1Nc2ccccc2C1=CNc1ccc(N2CCOCC2)cc1` [AGN 199659, 3-[(4-Morpholin-4-yl-phenylamino)-methylene]-1,3-dihydro-indol-2-one] showed a Vd of 0.000255 L, a clearance of 0.00387 mL/min and a half-life of 1.21 h.

The term logP denotes the decadic logarithm of the partition coefficient of the neutral form, usually between octanol and water. A higher logP goes with higher lipophilicity. As usually defined, the solubility is the dissolved amount per volume that the medium holds. Low values mean little dissolved substance, high ones much dissolved substance. In the case of `Nc1ccc2c(c1)C(=C1C(=O)Nc3ccc(Cl)cc31)OC2` [AGN 200954, 3-(6-Amino-3H-isobenzofuran-1-ylidene)-5-chloro-1,3-dihydro-indol-2-one], the “period of in-vitro release from implants” value in [2] came out at 180 days. The compound further gave a clearance in data set [1] of 0.00433 mL/min. In data set [3], the logP is 2.21 and the solubility came to 0.3 µg/mL (≈ 1 µM). In data set [4], this compound showed a Vd of 0.000705 L and a half-life of 2.59 h.

On to `O=C(O)CC1O/C(=C2/C(=O)Nc3cc(F)ccc32)c2ccccc21` (centres unmarked) [AGN 201634], for which the stability of solution entry in [5] is on record as “more than 35 days”. Besides, the “stability of DDS solution in various pH medium” value in data set [6] (4° C.) was above 14 days; in [6] (ambient condition), “more than 7 days”. Also, the results for the “duration of controlled release in vitro” value in data set [7] (medium of pH 6.0), in [7] (medium of pH 7.4) and in [7] (medium of pH 8.5) were “more than 5 months”, “more than 5 months” and “more than 4 weeks”, respectively. This compound yielded a lipophilicity (logP) in data set [3] of 1.25. In [3], this compound yielded a solubility of 88 µg/mL (≈ 271 µM).

In general, pKa refers to the pH at which an ionisable group is half protonated. A low value points to a group that gives up its proton readily. For the compound `CCN(CC)CCOc1ccc(NC=C2C(=O)Nc3cc(F)ccc32)cc1` [AGN 202314], the “period of in-vitro delivery from formulations” value in data set [2] (1 mg Purac PLA implants) is given as “four”. Also, in [2] (AGN 202314 implant), the “period of drug release in vitro” value is “two”. The “period of in-vitro release from implants” value in [2] was 14 days. For the same compound, the plasma levels entry in [8] (all time points (days 8, 15, 31, 61), implants in rabbit eye) is recorded as “BLQ or extremely low”. Besides, the “period of drug release in vivo” value in [8] (intravitreal PLGA implant, albino rabbit) is given as “two”. For the same compound, in data set [3], the pKa turned out to be 9.68. The logP in data set [3] is 3.8. Moreover, the solubility in [3] came to 202 µg/mL (≈ 547 µM). Besides, the “Retina AGN 202314 concentration” value was “BLQ (BLQ: Retina and lens: <5 ng/g)” in data set [9] (Day 15, subconjunctival PLGA implants, 3 rods, total 1.2 mg AGN 202314); “BLQ (BLQ: Retina and lens: <5 ng/g)” in [9] (setting [10]); “BLQ (BLQ: Retina and lens: <5 ng/g)” in data set [9] (setting [11]). Further, the “Lens AGN 202314 concentration” value in [9] (setting [10]) was “BLQ (BLQ: Retina and lens: <5 ng/g)”; in data set [9] (setting [11]), “BLQ (BLQ: Retina and lens: <5 ng/g)”. The concentration at 8 day in [9] (aqueous humor, other: subconjunctival implant, subconjunctival PLGA implants, 3 rods, total 1.2 mg AGN 202314, read-out: Aqueous Humor AGN 202314 concentration) stood at 6.38 ng/mL; in [9] (lens, other: subconjunctival implant, subconjunctival PLGA implants, 3 rods, total 1.2 mg AGN 202314, read-out: Lens AGN 202314 concentration), 229 ng/g; in data set [9] (retina, other: subconjunctival implant, subconjunctival PLGA implants, 3 rods, total 1.2 mg AGN 202314, read-out: Retina AGN 202314 concentration) it was 63.8 ng/g. For the same compound, the concentration at 15 day in [9] (lens, other: subconjunctival implant, Day 15, subconjunctival PLGA implants, 3 rods, total 1.2 mg AGN 202314) is 7.93 ng/g. Also, the “periocular delivery to the vitreous and retina” value in data set [9] (subconjunctival implants and microspheres) is listed as “unsuccessful”.

In data set [3], `Cc1cccc2c1C(=CNc1ccc(CCN3CCCCC3)cc1)C(=O)N2` [AGN 202560] displayed a pKa of 9.65, a logP of 3.66 and a solubility of 41 µg/mL (≈ 113 µM).
